For this test, the target named is CK2A1 (CK2α/β) (Homo sapiens, UniProt P68400). Put plainly: CK2 kinase assay, CK2A1 (CK2α/β). The format is biochemical. Conditions: Table A; read-out: CK2A1 (CK2α/β) (IC50).
Sequence of CK2A1 (CK2α/β) (P68400 whole entry, species assumed): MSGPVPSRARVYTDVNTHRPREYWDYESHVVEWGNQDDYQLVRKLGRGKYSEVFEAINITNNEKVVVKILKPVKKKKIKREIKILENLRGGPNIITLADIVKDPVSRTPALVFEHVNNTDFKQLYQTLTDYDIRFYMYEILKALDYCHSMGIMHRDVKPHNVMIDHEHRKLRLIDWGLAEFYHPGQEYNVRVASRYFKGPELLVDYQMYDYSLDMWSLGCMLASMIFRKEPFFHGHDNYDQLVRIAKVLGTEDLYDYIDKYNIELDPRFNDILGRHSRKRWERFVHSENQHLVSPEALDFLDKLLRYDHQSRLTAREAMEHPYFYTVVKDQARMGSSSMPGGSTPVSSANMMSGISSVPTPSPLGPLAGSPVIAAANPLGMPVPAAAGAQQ
Sequence of CK2A1 (CK2α/β) (P67870 whole entry partner, species assumed): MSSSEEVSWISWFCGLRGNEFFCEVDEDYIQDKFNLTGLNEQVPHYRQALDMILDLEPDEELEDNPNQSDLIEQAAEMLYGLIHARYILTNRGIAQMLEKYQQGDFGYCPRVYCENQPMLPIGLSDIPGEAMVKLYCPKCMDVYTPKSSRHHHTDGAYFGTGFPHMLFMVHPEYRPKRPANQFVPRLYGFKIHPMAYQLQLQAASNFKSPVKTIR
Regarding `CCNc1nc(Nc2cc(C#N)cc(N3CC[C@@H](NC(=O)OC)[C@H](N(C)[C@@H](C)C(N)=O)C3)c2Cl)nn2c(C#N)cnc12` [Example 768, methyl N-[(3R,4R)-3-{[(1S)-1-carbamoylethyl](methyl)amino}-1-(2-chloro-5-cyano-3-{[7-cyano-4-(ethylamino)imidazo[2,1-f] [1,2,4]triazin-2-yl]amino}phenyl)piperidin-4-yl] carbamate], the IC50 amounted to 4 nM.
For the molecule `CCNc1nc(Nc2cc(C#N)cc(N3CCC4(CCN(C)C4=O)CC3)c2Cl)nn2c(C#N)cnc12` (racemic) [Example 784, (+/−)-2-((2-chloro-5-cyano-3-(2-methyl-1-oxo-2,8-diazaspiro[4.5]decan-8-yl)phenyl)amino)-4-(ethylamino)imidazo[2,1-f][1,2,4]triazine-7-carbonitrile], the IC50 came out at 1.88 nM.
The result for `CC[C@H]1CN(c2cc(C#N)cc(Nc3nc(NC4CC4)c4ncc(C#N)n4n3)c2Cl)CC[C@H]1NC(=O)OC` (racemic) [Example 296, (+/−) methyl ((3S,4R)-1-(2-chloro-5-cyano-3-((7-cyano-4-(cyclopropylamino)imidazo[2,1-f][1,2,4]triazin-2-yl)amino)phenyl)-3-ethyl-4-piperidinyl)carbamate] reads 0.94 nM.
As to `CN1CCN(Cc2cc(C#N)cc(Nc3nc(NC4CC4)c4ncc(C#N)n4n3)c2Cl)CC1` [Example 670, 2-((2-chloro-5-cyano-3-((4-methylpiperazin-1-yl)methyl)phenyl)amino)-4-(cyclopropylamino)imidazo[2,1-f][1,2,4]triazine-7-carbonitrile], the IC50 came out at 0.76 nM.
Regarding `CC(C)(C)CNCc1cc(C#N)cc(Nc2nc(NC3CC3)c3ncc(C#N)n3n2)c1Cl` [Example 469, 2-[(2-chloro-5-cyano-3-{[(2,2-dimethylpropyl)amino]methyl}phenyl)amino]-4-(cyclopropylamino)imidazo[2,1-f][1,2,4]triazine-7-carbonitrile], the IC50 amounted to 1.48 nM.
As for `CC(=O)N1CCN(CC(O)c2cc(C#N)cc(Nc3nc(NC4CC4)c4ncc(C#N)n4n3)c2Cl)CC1` (centres unmarked) [Example 689, 2-((3-(2-(4-acetylpiperazin-1-yl)-1-hydroxyethyl)-2-chloro-5-cyanophenyl)amino)-4-(cyclopropylamino)imidazo[2,1-f][1,2,4]triazine-7-carbonitrile], the IC50 is 1 nM.
As for `COC(=O)N[C@H]1CCN(C2CN(c3cc(C#N)cc(Nc4nc(NC5CC5)c5ncc(C#N)n5n4)c3Cl)C2)C[C@@H]1O` (racemic) [Example 154, (+/−) methyl ((3S,4S)-1-(1-(2-chloro-5-cyano-3-((7-cyano-4-(cyclopropylamino)imidazo [2,1-f][1,2,4]triazin-2-yl)amino)phenyl)-3-azetidinyl)-3-hydroxy-4-piperidinyl)carbamate], the IC50 was determined as 0.4 nM.
Turning to `CNC(=O)CN1CCN(c2cc(C#N)cc(Nc3nc(NC4CC4)c4ncc(C#N)n4n3)c2Cl)CC1` [Example 611, 2-[4-(2-chloro-5-cyano-3-{[7-cyano-4-(cyclopropylamino)imidazo [2,1-f][1,2,4]triazin-2-yl]amino}phenyl)piperazin-1-yl]-N-methylacetamide], the IC50 worked out at 0.65 nM.
For the molecule `N#Cc1cc(Nc2nc(NC3CC3)c3ncc(C#N)n3n2)c(Cl)c(N2CCN3CCC2C3)c1` (centres unmarked) [Example 8, 2-((2-chloro-5-cyano-3-(1,4-diazabicyclo[3.2.1]oct-4-yl)phenyl)amino)-4-(cyclopropylamino)imidazo [2,1-f][1,2,4]triazine-7-carbonitrile], the IC50 was 0.53 nM.
Under `CCNc1nc(Nc2cc(C#N)cc(N3CC[C@@H](NC(=O)OC)[C@H](OC(=O)[C@@H](N)C(C)C)C3)c2Cl)nn2c(C#N)cnc12` [Example 346, (S)-(3R,4R)-1-(2-chloro-5-cyano-3-((7-cyano-4-(ethylamino)imidazo[2,1-f][1,2,4]triazin-2-yl)amino)phenyl)-4-((methoxycarbonyl)amino)piperidin-3-yl 2-amino-3-methylbutanoate] stands 2.03 nM; under `CN(CC1CN(c2cc(C#N)cc(Nc3nc(NC4CC4)c4ncc(C#N)n4n3)c2Cl)CCO1)CC(C)(C)O` (centres unmarked) [Example 701, 2-{[2-chloro-5-cyano-3-(2-{[(2-hydroxy-2-methylpropyl)(methyl)amino]methyl}morpholin-4-yl)phenyl]amino}-4-(cyclopropylamino)imidazo[2,1-f][1,2,4]triazine-7-carbonitrile], 2.68 nM.
Under `COCC(C)N1CCN(c2cc(C#N)cc(Nc3nc(NC4CC4)c4ncc(C#N)n4n3)c2Cl)CC1` (racemic) [Example 64, (+/−) 2-((2-chloro-5-cyano-3-(4-(2-methoxy-1-methylethyl)-1-piperazinyl)phenyl)amino)-4-(cyclopropylamino) imidazo[2,1-f][1,2,4] triazine-7-carbonilrile] stands 0.71 nM; under `CS(=O)(=O)NC(=O)CN1CCN(c2cc(C#N)cc(Nc3nc(NC4CC4)c4ncc(C#N)n4n3)c2Cl)CC1` [Example 607, 2-[4-(2-chloro-5-cyano-3-{[7-cyano-4-(cyclopropylamino)imidazo [2,1-f][1,2,4]triazin-2-yl]amino}phenyl)piperazin-1-yl]-N-methanesulfonamide-acetamide], 0.56 nM.
The result for `COC1CN(CCCc2cc(Cl)c(Nc3nc(NC4CC4)c4ncc(C#N)n4n3)cc2C#N)C1` [Example 570, 2-((2-chloro-5-cyano-4-(3-(3-methoxyazetidin-1-yl)propyl)phenyl)amino)-4-(cyclopropylamino)imidazo[2,1-f][1,2,4]triazine-7-carbonitrile] reads 1.91 nM; that for `CCNc1nc(Nc2cc(C#N)cc(C3CCN(C4CN(S(C)(=O)=O)C4)CC3)c2Cl)nn2c(C#N)cnc12` [Example 355, 2-((2-chloro-5-cyano-3-(1-(1-(methylsulfonyl)-3-azetidinyl)-4-piperidinyl)phenyl)amino)-4-(ethylamino)imidazo[2,1-f][1,2,4]triazine-7-carbonitrile], 5.23 nM; that for `N#Cc1cc(Nc2nc(NC3CC3)c3ncc(C#N)n3n2)c(Cl)c(N2CCC3CCN(CC(O)CF)C3C2)c1` (racemic) [Example 459, (+/−)-2-((2-chloro-5-cyano-3-(1-(3-fluoro-2-hydroxypropyl)hexahydro-1H-pyrrolo[2,3-c]pyridin-6(2H)-yl)phenyl)amino)-4-(cyclopropylamino)imidazo[2,1-f][1,2,4]triazine-7-carbonitrile], 1.27 nM.
With `CCNc1nc(Nc2ccc3c(c2)c(C#N)cn3C2CCN(C3CN(C(C)=O)C3)CC2)nn2c(C#N)cnc12` [Example 837, 2-((1-(1-(1-acetylazetidin-3-yl)piperidin-4-yl)-3-cyano-1H-indol-5-yl)amino)-4-(ethylamino)imidazo[2,1-f][1,2,4]triazine-7-carbonitrile], the IC50 stood at 2.42 nM.
For the molecule `N#Cc1cc(Nc2nc(NC3CC3)c3ncc(C#N)n3n2)c(OCCN2CCOCC2)cc1F` [Example 421, 2-((5-cyano-4-fluoro-2-(2-morpholinoethoxy)phenyl)amino)-4-(cyclopropylamino)imidazo[2,1-f][1,2,4]triazine-7-carbonitrile], the IC50 was determined as 0.61 nM.
As to `COC1CN(CCCCc2cc(Cl)c(Nc3nc(NC4CC4)c4ncc(C#N)n4n3)cc2C#N)C1` [Example 571, 2-((2-chloro-5-cyano-4-(4-(3-methoxyazetidin-1-yl)butyl)phenyl)amino)-4-(cyclopropylamino)imidazo[2,1-f][1,2,4]triazine-7-carbonitrile], the IC50 came out at 3.95 nM.
As for `CN1CCN(c2cc(C#N)cc(Nc3nc(NC4CC4)c4ncc(C#N)n4n3)c2Cl)CC1` [Example 1, 2-((2-chloro-5-cyano-3-(4-methyl-1-piperazinyl)phenyl)amino)-4-(cyclopropylamino)imidazo[2,1-f][1,2,4]triazine-7-carbonitrile], the IC50 was found to be 0.9 nM.
On to `CCNc1nc(Nc2cc(C#N)cc(CCCN3CCN(C)CC3)c2Cl)nn2c(C#N)cnc12` [Example 578, 2-((2-chloro-5-cyano-3-(3-(4-methylpiperazin-1-yl)propyl)phenyl)amino)-4-(ethylamino)imidazo[2,1-f][1,2,4]triazine-7-carbonitrile], for which the IC50 is 0.99 nM.
Under `N#Cc1cnc2c(NC3CC3)nc(Nc3cc(OC(F)F)cc(N4CCOCC4)c3Cl)nn12` [Example 406, 2-(2-chloro-5-(difluoromethoxy)-3-morpholinophenylamino)-4-(cyclopropylamino)imidazo[1,2-f][1,2,4]triazine-7-carbonitrile] stands 2.12 nM; under `CC(=O)N1CC(N2CCN(c3cc(C#N)cc(Nc4nc(NC5CC5)c5ncc(C#N)n5n4)c3F)CC2)C1` [Example 551, 2-((3-(4-(1-acetylazetidin-3-yl)piperazin-1-yl)-5-cyano-2-fluorophenyl)amino)-4-(cyclopropylamino)imidazo[2,1-f][1,2,4]triazine-7-carbonitrile], 1.23 nM.
Turning to `N#Cc1cc(Nc2nc(NC3CC3)c3ncc(C#N)n3n2)c(Cl)c(-c2cnn(CCN3CCOCC3)c2)c1` [Example 718, 2-[(2-chloro-5-cyano-3-{1-[2-(morpholin-4-yl)ethyl]-1H-pyrazol-4-yl}phenyl)amino]-4-(cyclopropylamino)imidazo [2,1-f][1,2,4]triazine-7-carbonitrile], the IC50 came out at 0.68 nM.
The result for `COC(=O)Nc1cc(Nc2nc(NC3CC3)c3ncc(C#N)n3n2)c(F)c(N2CCN(C)CC2)c1` [Example 385, methyl (3-((7-cyano-4-(cyclopropylamino)imidazo[2,1-f][1,2,4]triazin-2-yl)amino)-4-fluoro-5-(4-methylpiperazin-1-yl)phenyl)carbamate] reads 2.22 nM.
In the case of `CC(C)(O)CNC1CCN(c2cc(C#N)cc(Nc3nc(NC4CC4)c4ncc(C#N)n4n3)c2Cl)CC1` [Example 143, 2-((2-chloro-5-cyano-3-(4-((2-hydroxy-2-methylpropyl)amino)-1-piperidinyl)phenyl)amino)-4-(cyclopropylamino)imidazo [2,1-f][1,2,4]triazine-7-carbonitrile], the IC50 came out at 0.78 nM.
